Test results reported in the NIST ThermoML archive (doi:10.1021/je800637t).
Numbers after ± are expanded uncertainties.

What was measured:
[1] = mn = molality of the nth substance listed, in mol/kg; settings: 100.8 kPa, Liquid; for viscosity: Cone and plate viscometry; for electrical conductivity: Kyoto model CM-117 conductivity meter; for mass density: Vibrating tube method
[2] = refractive index (Na D-line) (dimensionless); mn = molality of the nth substance listed, in mol/kg; settings: 100.8 kPa, Liquid, Standard Abbe refractometry

O=[N+]([O-])[O-].[K+] [potassium nitrate] + O
Settings | electrical conductivity, [1] [S/m] | mass density, [1] [kg/m3] | refractive index, [2] | viscosity, [1] [mPa·s]
298.15 K, m1 = 0.3799 | 0.000381 ± 5e-06 | 1020.03 ± 0.09 | 1.33593 ± 0.0004 | 0.879 ± 0.008
298.15 K, m1 = 0.76 | 0.000705 ± 8e-06 | 1041.91 ± 0.06 | 1.33907 ± 0.0004 | 0.87 ± 0.011
298.15 K, m1 = 1.14 | 0.000985 ± 1.2e-05 | 1062.91 ± 0.08 | 1.34205 ± 0.0004 | 0.869 ± 0.008
298.15 K, m1 = 1.52 | 0.00122 ± 1.5e-05 | 1083.04 ± 0.12 | 1.34488 ± 0.0004 | 0.872 ± 0.012
298.15 K, m1 = 1.9 | 0.00144 ± 1.7e-05 | 1102.4 ± 0.12 | 1.34751 ± 0.0004 | 0.881 ± 0.008
298.15 K, m1 = 2.28 | 0.00162 ± 1.9e-05 | 1121.03 ± 0.09 | 1.35009 ± 0.0004 | 0.889 ± 0.008
298.15 K, m1 = 2.66 | 0.00179 ± 2.1e-05 | 1139.02 ± 0.1 | 1.35253 ± 0.0004 | 0.901 ± 0.011
298.15 K, m1 = 3.04 | 0.00194 ± 2.3e-05 | 1156.32 ± 0.13 | 1.35479 ± 0.0004 | 0.914 ± 0.014
298.15 K, m1 = 3.42 | 0.00211 ± 2.5e-05 | 1173.06 ± 0.12 | 1.35704 ± 0.0004 | 0.931 ± 0.008
298.15 K, m1 = 3.821 | 0.00223 ± 2.7e-05 | 1189.24 ± 0.13 | 1.35915 ± 0.0004 | 0.95 ± 0.009
313.15 K, m1 = 0.3799 | 0.000528 ± 6e-06 | 1014.52 ± 0.07 | 1.33384 ± 0.0004 | 0.652 ± 0.01
313.15 K, m1 = 0.76 | 0.000954 ± 1.1e-05 | 1035.85 ± 0.05 | 1.33687 ± 0.0004 | 0.654 ± 0.007
313.15 K, m1 = 1.14 | 0.00129 ± 1.5e-05 | 1056.36 ± 0.1 | 1.33975 ± 0.0004 | 0.657 ± 0.008
313.15 K, m1 = 1.52 | 0.00159 ± 1.9e-05 | 1076.08 ± 0.07 | 1.34248 ± 0.0004 | 0.665 ± 0.012
313.15 K, m1 = 1.9 | 0.00184 ± 2.2e-05 | 1095.07 ± 0.09 | 1.345 ± 0.0004 | 0.673 ± 0.008
313.15 K, m1 = 2.28 | 0.00208 ± 2.5e-05 | 1113.37 ± 0.13 | 1.34761 ± 0.0004 | 0.682 ± 0.009
313.15 K, m1 = 2.66 | 0.00227 ± 2.7e-05 | 1131.04 ± 0.1 | 1.34991 ± 0.0004 | 0.693 ± 0.01
313.15 K, m1 = 3.04 | 0.00248 ± 3e-05 | 1148.05 ± 0.13 | 1.35227 ± 0.0004 | 0.703 ± 0.008
313.15 K, m1 = 3.42 | 0.00263 ± 3.2e-05 | 1164.53 ± 0.15 | 1.35443 ± 0.0004 | 0.716 ± 0.01
313.15 K, m1 = 3.8 | 0.00278 ± 3.3e-05 | 1180.49 ± 0.12 | 1.35643 ± 0.0004 | 0.733 ± 0.014
313.15 K, m1 = 4.581 | 0.00308 ± 3.7e-05 | 1211.11 ± 0.15 | 1.36051 ± 0.00041 | 0.76 ± 0.008
313.15 K, m1 = 5.341 | 0.0033 ± 4e-05 | 1239.46 ± 0.18 | 1.36426 ± 0.00041 | 0.803 ± 0.009
313.15 K, m1 = 6.273 | 0.00357 ± 4.3e-05 | 1271.3 ± 0.2 | 1.36812 ± 0.00041 | 0.844 ± 0.011
